Marks after values point to notes of the source that are not given here.
Columns and labels:
human SSTR5 = biological target: T1, human SSTR5 (Homo sapiens, UniProt P35346); assay: biochemical; conditions: 25° C., 2 hours, Cheng-Prusoff; read-out: Binding Ki (nM) SSTR5
T1 construct: expressed in transfected cells; host or cells: CHO-K1 (membrane homogenates)
Protocol: (§1) Cell membranes were then filtered and washed, and protein-bound radioactivity was measured with a suitable instrument. The Ki values of corresponding targets were calculated using a Cheng-Prusoff formula.

human SSTR3 = biological target: T2, human SSTR3 (Homo sapiens, UniProt P32745); assay: biochemical; conditions: 25° C., 2 hours, Cheng-Prusoff; read-out: Binding Ki (nM) SSTR3
T2 construct: expressed in transfected cells; host or cells: CHO-K1 (membrane homogenates)
Protocol: as §1

human SSTR1 = biological target: T3, human SSTR1 (Homo sapiens, UniProt P30872); assay: biochemical; conditions: 25° C., 2 hours, Cheng-Prusoff; read-out: Binding Ki (nM) SSTR1
T3 construct: expressed in transfected cells; host or cells: CHO-K1 (membrane homogenates)
Protocol: as §1

human SSTR2 = biological target: T4, human SSTR2 (Homo sapiens, UniProt P30874); assay: biochemical; conditions: 25° C., 2 hours, Cheng-Prusoff; read-out: Binding Ki (nM) SSTR2
T4 construct: expressed in transfected cells; host or cells: CHO-K1 (membrane homogenates)
Protocol: as §1

rat CFA pain model = assay: multi-dose oral pharmacodynamic study in rat CFA pain model (Von Frey PWT); assay type: in vivo
Protocol: The efficacy of Compound 1a and Compound 14 in the rat CFA pain model was evaluated using a mechanical allodynia method.
SD rats, 72 males, divided into 9 groups, were purchased from Beijing Vital River Laboratory Animal Technology Co., Ltd.
The experimental animals were adaptively reared for 3 to 7 days, and 8 of them were selected as a normal control group, and the other animals were injected with 50 µL of CFA in the center of the left hind paw for modeling. 24 hours after injection, the animals were tested for paw withdrawal threshold (PWT) basal values, and were divided into groups according to the basal values, which were solvent control group, indomethacin group, Compound 1a, 10 mpk group, Compound 1a, 30 mpk group, Compound 1a, 100 mpk group, Compound 14, 3 mpk group, Compound 14, 10 mpk group, and Compound 14, 30 mpk group, with 8 animals in each group. Subsequently, the animals were weighed and administered orally according to Table 6. All the animals were tested for paw withdrawal thresholds (PWT) using Von Frey 1, 2, and 4 hours after administration to further evaluate the efficacy of the compounds of the present invention.

[1] = metabolic stability in pooled human liver microsomes; conditions: pooled human liver microsomes, pH 7.4
Protocol: Metabolic degradation of a test compound was analyzed using pooled human liver microsomes and male rat liver microsomes, respectively, at 37° C.
After pre-incubation at 37° C. for 5 min, NADPH (5 mM, 60 µL) was added to initiate a reaction. A fixed volume of the reaction mixture (30 µL) was sampled into the solution at fixed time points (0, 5, 15, 30, 60 min) to quench the reaction. After centrifugation (4000 rpm, 15 min), the supernatant (100 µL) was mixed with distilled water (100 µL) and then subjected to LC-MS/MS analysis to test the amount of the compound. A half-life was calculated using a first-order reaction kinetic equation (Ct = C0 × e^-ket, T½ = Ln2/ke).

T4 sequence (P30874 whole entry): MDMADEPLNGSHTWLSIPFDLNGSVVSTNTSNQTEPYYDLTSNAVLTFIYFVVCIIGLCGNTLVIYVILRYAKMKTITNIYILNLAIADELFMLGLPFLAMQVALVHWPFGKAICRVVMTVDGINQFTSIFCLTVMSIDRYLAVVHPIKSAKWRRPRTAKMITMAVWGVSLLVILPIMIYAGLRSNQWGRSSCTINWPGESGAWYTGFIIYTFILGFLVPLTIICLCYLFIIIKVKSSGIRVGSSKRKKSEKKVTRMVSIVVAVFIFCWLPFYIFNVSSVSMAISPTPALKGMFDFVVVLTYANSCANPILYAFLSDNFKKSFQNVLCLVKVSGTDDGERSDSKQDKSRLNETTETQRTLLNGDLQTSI
T3 sequence (P30872 whole entry): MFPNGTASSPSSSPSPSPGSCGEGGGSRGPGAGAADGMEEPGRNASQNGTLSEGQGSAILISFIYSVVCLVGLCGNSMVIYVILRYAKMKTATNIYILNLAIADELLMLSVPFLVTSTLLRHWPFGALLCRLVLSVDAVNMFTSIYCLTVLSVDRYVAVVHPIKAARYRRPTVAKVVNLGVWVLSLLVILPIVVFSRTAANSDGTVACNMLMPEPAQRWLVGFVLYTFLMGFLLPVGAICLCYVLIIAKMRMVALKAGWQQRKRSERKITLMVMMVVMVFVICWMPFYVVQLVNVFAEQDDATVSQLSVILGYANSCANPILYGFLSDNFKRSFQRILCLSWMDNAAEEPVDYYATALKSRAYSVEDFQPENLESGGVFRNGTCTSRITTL
T2 sequence (P32745 whole entry): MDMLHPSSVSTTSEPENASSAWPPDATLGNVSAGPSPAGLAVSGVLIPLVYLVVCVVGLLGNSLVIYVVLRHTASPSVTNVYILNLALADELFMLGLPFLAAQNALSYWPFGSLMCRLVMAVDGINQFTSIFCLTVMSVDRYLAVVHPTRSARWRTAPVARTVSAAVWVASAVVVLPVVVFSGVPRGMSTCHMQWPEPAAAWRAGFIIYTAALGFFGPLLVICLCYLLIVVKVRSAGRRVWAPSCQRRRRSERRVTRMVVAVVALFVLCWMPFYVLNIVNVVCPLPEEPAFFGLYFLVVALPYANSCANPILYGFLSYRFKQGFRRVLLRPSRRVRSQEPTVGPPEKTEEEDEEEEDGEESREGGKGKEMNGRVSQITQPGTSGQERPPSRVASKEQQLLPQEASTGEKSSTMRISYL
T1 sequence (P35346 whole entry): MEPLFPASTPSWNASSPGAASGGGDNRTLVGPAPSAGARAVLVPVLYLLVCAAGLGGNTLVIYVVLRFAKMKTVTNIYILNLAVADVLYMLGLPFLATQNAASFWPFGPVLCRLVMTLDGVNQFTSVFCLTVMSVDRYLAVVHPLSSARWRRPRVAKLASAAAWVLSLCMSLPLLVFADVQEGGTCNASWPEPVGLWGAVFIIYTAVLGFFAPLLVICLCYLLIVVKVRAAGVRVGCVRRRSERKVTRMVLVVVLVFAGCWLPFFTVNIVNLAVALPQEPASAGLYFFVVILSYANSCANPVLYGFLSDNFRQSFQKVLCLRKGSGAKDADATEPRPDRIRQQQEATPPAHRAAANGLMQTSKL

- Ki (human SSTR5): > 5650 nM
- Ki (human SSTR3): > 3420 nM
- Ki (human SSTR1): 799 nM
- Ki (human SSTR2): > 5310 nM
- half-life at 1 µM [1]: > 3.11 h
Compound: CSc1cccc2c(C(C)(C)NC(=O)[C@H]3[C@@H]4CNC[C@@H]43)nn(C)c12 [Compound 14, (1R,5S,6R)-N-(2-(1-Methyl-7-(Methylthio)-1H-Indazol-3-yl)Prop-2-yl)-3-Azabicyclo[3.1.0]Hexane-6-Carboxamide]
- Paw withdrawal threshold (PWT(g)) (average) 0 hours (rat CFA pain model; 3 mg/kg oral group): 3.118 g
- Paw withdrawal threshold (PWT(g)) (average) 1 hour (rat CFA pain model; 3 mg/kg oral): 3.535 g
- Paw withdrawal threshold (PWT(g)) (average) 2 hours (rat CFA pain model; 3 mg/kg oral): 5.369 g
- Paw withdrawal threshold (PWT(g)) (average) 4 hours (rat CFA pain model; 3 mg/kg oral): 5.335 g
- Paw withdrawal threshold (PWT(g)) (average) 0 hours (rat CFA pain model; 10 mg/kg oral group): 3.118 g
- Paw withdrawal threshold (PWT(g)) (average) 1 hour (rat CFA pain model; 10 mg/kg oral): 4.155 g
- Paw withdrawal threshold (PWT(g)) (average) 2 hours (rat CFA pain model; 10 mg/kg oral): 5.789 g
- Paw withdrawal threshold (PWT(g)) (average) 4 hours (rat CFA pain model; 10 mg/kg oral): 7.308 ** g
- Paw withdrawal threshold (PWT(g)) (average) 0 hours (rat CFA pain model; 30 mg/kg oral group): 3.079 g
- Paw withdrawal threshold (PWT(g)) (average) 1 hour (rat CFA pain model; 30 mg/kg oral): 4.051 g
- Paw withdrawal threshold (PWT(g)) (average) 2 hours (rat CFA pain model; 30 mg/kg oral): 5.683 g
- Paw withdrawal threshold (PWT(g)) (average) 4 hours (rat CFA pain model; 30 mg/kg oral): 8.213 **** g
- inhibition of CFA-induced mechanical hyperalgesia (in words) (rat CFA pain model; oral 3, 10, 30 mg/kg, 4 hours after administration): dose-dependently inhibit
- onset dose (rat CFA pain model; oral, inhibition of CFA-induced mechanical hyperalgesia): 10 mg/kg
